Data from patent US9393324B2, “Use of 31P NMR spectroscopy of whole heart energetics for detection of drug-induced cardiotoxicity” (Battelle Memorial Institute, priority 2012, dated 2016).
Entries after “also recorded” stand apart in the source; their conditions may differ. Where two headings read alike, the source gives them in different places.

Tests used:
isolated rat heart [1] = test system: isolated rat heart
Text: Applying this approach, a perfused isolated heart may be inserted into an 11.5 tesla NMR magnet for spectroscopic analysis of high-energy phosphagens (ATP, phosphocreatine, and inorganic phosphate) in combination with collection of heart effluent and tissue, and functional assessment of contractility can be determined as measured by dP/dtmax and dP/dtmin, left ventricular developed pressure, heart rate, etc.
(§1) A heart, in this case isolated from rat and perfused using the Langendorff method, is image guided by 1 H magnetic resonance imaging and magnetic resonance spectroscopy is performed for ^31P found in the high energy phosphogens ATP, phosphocreatine (PCr), and inorganic phosphate (Pi) in an upright 11.7 Tesla NMR at 161.99 MHz (FIGS. 1 and 2).
(§2) The energetic spectra from the whole heart was averaged every 4 minutes before and after drug exposure. PCr, ATP alpha, beta, and gamma, and Pi peak height and area, and pH calculated from the resonance shift in Pi (pHi=pK+log [(go−gB)/gA−go)] […] Heart contractility (left ventricular pressure) and heart rate is simultaneously acquired on an Emka IOX data acquisition system.
^31P spectra is acquired for 20 minutes prior to drug application. The drug of interest is then applied for 1 hour followed by a 20 minute stress test using 0.1 um isoproteranol (a beta agonist) in the presence of the drug which causes increased contractility, relaxation, heart rate, and increased conduction velocity. This step is done to test the energy reserve of the heart after drug application. […] As a positive control, we use FCCP, a mitochondrial uncoupler that inhibits mitochondrial oxidative phosphorylation by disrupting the mitochondrial protein gradient.

isolated rat heart [2] = test system: isolated rat heart; remark: listed apart in the source
Experimental: In combination with the functional assessment, whole heart energetics can be determined, measured as the changes in peak levels of ATP, phosphocreatine, and inorganic phosphate using NMR spectroscopy.
as §1, §2
^31P spectra is acquired for 20 minutes prior to drug application. The drug of interest is then applied for 1 hour followed by a 20 minute stress test using 0.1 um isoproteranol (a beta agonist) in the presence of the drug which causes increased contractility, relaxation, heart rate, and increased conduction velocity. This step is done to test the energy reserve of the heart after drug application.

[3] = drug applied for 1 hour, before stress test
[4] = during 20 minute stress test, 0.1 um isoproteranol in the presence of the drug

`COc1cccc2c1C(=O)c1c(O)c3c(c(O)c1C2=O)C[C@@](O)(C(=O)CO)C[C@@H]3O[C@H]1C[C@H](N)[C@H](O)[C@H](C)O1` [doxorubicin] was tested, and the contractility (isolated rat heart [1]; doxorubicin 1 and 10 uM) was “increases; also recorded: increasing”, the ATP (isolated rat heart [2]; doxorubicin 1 and 10 uM) was “decreases” and the PCr (isolated rat heart [2]; doxorubicin 1 and 10 uM) was “decreases”. The “Pi (inorganic phosphate)” value (isolated rat heart [2]; doxorubicin 1 and 10 uM) was “decreases”, the “effects on contractility and energetic parameters in the stress test period” value (isolated rat heart [2]; doxorubicin 1 and 10 uM, isoproteranol stress test period) was “pronounced” and the phosphocreatine (isolated rat heart [2]; stress test with isoproteranol, versus control hearts) was “pronounced drop”.

“carbony cyanide 4-(trifluoromethoxy) phenylhydrazone [FCCP]” was tested, and the “contractility (dP/dtmax)” value (isolated rat heart [1]; [3]) was “declines”, the contractility (isolated rat heart [1]; [4]) was “increased slightly” and the ATPγ peak (isolated rat heart [2]; [3]) was “declines”. The PCr peak (isolated rat heart [2]; [3]) was “declines”, the Pi peak (isolated rat heart [2]; [3]) was “did not affect” and the ATPγ peak (isolated rat heart [2]; [4]) was “declined further”. The PCr peak (isolated rat heart [2]; [4]) was “dropped slightly” and the Pi peak (isolated rat heart [2]; [4]) was “no effect”.
